Measurements reported in paper PMC5318439, “The Novel Toll-Like Receptor 2 Agonist SUP3 Enhances Antigen Presentation and T Cell Activation by Dendritic Cells” (Frontiers in Immunology, 2017).
Where a SMILES comes first, the peptide text is derived from it. The star is where a group is joined. X1 = CCCCCCCCCCCCCCNC(=O)OC[C@H](C*)OC(=O)NCCCCCCCCCCCCCC; Palmitoyl = CCCCCCCCCCCCCCCC(=O)*

What was measured:
OT-II CD4^+ T cells = assay: OT-II CD4+ T cell activation in vivo; design: species or system mice; details: OVA 100 µg per mouse s.c. with 2 nmol per mouse, 3 days; vs Pam3
Description: Carboxyfluorescein diacetate succinimidyl ester-stained OT-II CD4^+ T cells (2 × 10^6 cells per mouse) were transferred into mice 1 day prior immunization. Then the recipients were subcutaneously (s.c.) injected with OVA alone (100 µg per mouse), or OVA mixed with SUP3 (2 nmol per mouse) or Pam3 (2 nmol per mouse) at groin. Three days after immunization, OT-II CD4^+ T cells from inguinal lymph nodes were analyzed by flow cytometry.
Figure 5 SUP3 enhanced antigen presentation ability of CD11b^+ conventional dendritic cells (cDCs) and production of antibodies against thymus-dependent (TD) antigens. […] Three days after immunization, division of OT-II CD4^+ T cells from inguinal lymph nodes were analyzed by flow cytometry (B). Absolute numbers of proliferated OT-II CD4^+ T cells were calculated in (C). […] Cells were then thoroughly washed and cocultured with CFSE-stained OT-II CD4^+ T cells for 4 days and analyzed by flow cytometry. (D) The division of OT-II cells was measured by reduced level of CFSE-labeling. (E) Absolute numbers of proliferated T cells from (D) were calculated. (F) SUP3 (2 nmol per mouse), Pam3 (2 nmol per mouse), or PBS were i.v. injected into mice for 1 h, and splenic CD11b^+ cDCs were enriched and analyzed for CD86 expression by flow cytometry. […] The cytokines from supernatant were determined by ELISA (*p < 0.05, **p < 0.01). […]

NF-κB and MAPK pathways = assay: Immunoblot of NF-κB and MAPK signaling in CD8+ cDCs; assay type: cell-based, mice; details: 200 nM, 0–120 min, western blot
Description: Immunoblot assay was performed as described elsewhere ([40], [41]). Briefly, whole-cell lysates were prepared by direct lysis in SDS loading buffer. Lysates were separated by 10% SDSPAGE and transferred to a polyvinylidene fluoride membrane (Millipore IPVH00010) for probing with antibody. Antibodies against phosphorylated NF-κB p65 (p-p65) (Ser 536) (Clone 93H1), p-SAPK/JNK (Thr183/Tyr185) (Clone 81E11), SAPK/JNK (Clone 56G8), p-p38 (Thr180/Tyr182) (Clone 3D7), and p38 (Clone D13E1) were purchased from Cell Signaling Technology. Antibodies against IκBα ([…]), p-ERK (Clone E-4), and ERK (Clone K-23) were purchased from Santa Cruz Biotech. The chemiluminescence signals were captured by Amersham Image 600 system (GE Healthcare).
Figure 4 SUP3 stimulated maturation of CD8^+ conventional dendritic cells (cDCs). (A) Purified CD8^+ cDCs were treated with SUP3 (200 nM) or Pam3 (200 nM) in the presence of granulocyte-macrophage colony-stimulating factor (GM-CSF) (20 ng/mL) for 24 h. The surface expression of costimulatory and major histocompatibility complex (MHC) molecules were then analyzed by flow cytometry. Representative data from three independent experiments were shown. […] Splenic CD8^+ cDCs were enriched, and surface expression of CD40 and CD86 was analyzed by flow cytometry. […] Supernatants were harvested 24 and 48 h post-stimulation, and cytokines were measured by ELISA. […]

For `CCCCCCCCCCCCCCCC(=O)N[C@@H](CSC[C@@H](COC(=O)NCCCCCCCCCCCCCC)OC(=O)NCCCCCCCCCCCCCC)C(=O)NCC(=O)N[C@@H](CCCCN)C(=O)N[C@@H](CCCCN)C(=O)N[C@@H](CCCCN)C(=O)O` [SUP3, (2S,5S,8S,14R,18R)-2,5,8-tris(4-aminobutyl)-4,7,10,13,21-pentaoxo-14-palmitamido-18-((tetradecylcarbamoyl)oxy)-20-oxa-16-thia-3,6,9,12,22-pentaazahexatriacontan-1-oic acid] (Palmitoyl-C(X1)GKKK-OH), the “proliferation of OT-II CD4+ T cells in draining lymph nodes” value (OT-II CD4^+ T cells) was “more proliferation of OT-II CD4^+ T cells than that with Pam3” and the “NF-κB and MAPK signaling (p-p65, IκBα, p-ERK, p-JNK, p-p38) in CD8+ cDCs” value (NF-κB and MAPK pathways) was “induced phosphorylation of p65 and degradation of IκBα and enhanced phosphorylation of ERK, JNK, and p38”.
